Entries after “also recorded” stand apart in the source; their conditions may differ.
Each sequence was assayed on T-cells from AIHA patients (assay: Cell proliferation assay of PBMC/T-cells from autoimmune haemolytic anaemia patients). Conditions: AIHA patients; FIG. 17A.
Assay type: cell-based, human
Method: (§1) PBMC were cultured in 100 μl volumes in microtitre plates at a concentration of 1.25×10^6 cells/ml in an Alpha Modification of Eagle's Medium (ICN Flow, Bucks UK) supplemented with 5% autologous serum, 4 mM L-Glutamine (Gibco, Paisley, UK), 100 U/ml sodium benzylpenicillin G (Sigma), 100 μg/ml streptomycin sulphate (Sigma), 5×10^−5M 2-mercaptoethanol (Sigma) and 20 mM HEPES pH7,2 (Sigma). All plates were incubated at 37° C. in a humidified atmosphere of 5% CO2/95% air. The cell proliferation in cultures was estimated from the incorporation of ^3H-Thymidine in triplicate wells 5 days after stimulation with antigen as described previously. Proliferation results are presented either as the mean CPM+/−SD of the triplicate samples, or as a stimulation index (SI), expressing the ratio of mean CPM in stimulated versus unstimulated control cultures. An S1>3 with CPM>1000 is interpreted as representing a positive response.
The experiments mentioned in Example 1.1 were repeated using blood from subjects suffering from autoimmune haemolytic anaemia.
These experiments can be carried out using other rhesus proteins, such as RhcE, Rhce, RhCe or RhCE protein. T-cells from RhD-negative subjects suffering AIHA were tested with the panel of ce peptides (Table 3).

Sequence	proliferative T-cell response to RhD peptides
AALILLFYFFTHYDA (Residue 22- 36 RhD; listed as Homo sapiens) [compound 3]	exhibited a proliferative response
ATIPSLSAMLGALFL (Residue 202-216 RhD; listed as Homo sapiens) [compound 33]	exhibited a proliferative response
CLPLWALTLEAALIL (Residues 12-26 RhD; listed as Homo sapiens) [peptide 2]	exhibited a proliferative response
GKVNLAQLVVMVLVE (Residue 132-146 RhD; listed as Homo sapiens) [compound 20]	exhibited a proliferative response
GLISVGGAKYLPGCC (Residue 302-316 RhD; listed as Homo sapiens) [compound 50]	exhibited a proliferative response
GTSCHLIPSPWLAMV (Residue 282-296 RhD; listed as Homo sapiens) [compound 47]	exhibited a proliferative response
LAIVIALTSGLLTGL (Residue 372-386 RhD; listed as Homo sapiens) [compound 62]	exhibited a proliferative response

Same assay, conditions: RhD-negative AIHA subjects; FIG. 17B

Sequence	proliferative T-cell response to ce peptides
FSLLGLLGEITYIVL (Residue 332-346 Rhce; listed as Homo sapiens) [compound 195]	exhibited a proliferative response
GTSCHLIPSPWLAMV (Residue 282-296 Rhce; listed as Homo sapiens) [compound 186]	exhibited a proliferative response
KGLVASYQVGQDLTV (Residue 42-56 Rhce; listed as Homo sapiens) [compound 144]	exhibited a proliferative response
THYDASLEDQKGLVA (Residues 32-46 Rhce; listed as Homo sapiens) [compound 143]	exhibited a proliferative response
TVAWCLPKPLPKGTE (Residue 182-196 Rhce; listed as Homo sapiens) [compound 168]	exhibited a proliferative response

What follows are sequences tested on PBMC from RhD-alloimmunised donors (assay: celELISA of cytokine production (IL-10, TGF-β1) by PBMC from RhD alloimmunised donors). Conditions: FIG. 3 and FIG. 10.
Assay type: cell-based, human
Method: Cultured T-cells are stimulated with each of the epitopes given in Table 1 and after 5 days the responding cells were transferred to flat-bottomed microtitre plates (96-well Nunc-Immuno Maxisorp) coated with […] per well of monoclonal anti-cytokine capture antibody diluted in 0.05M alkaline carbonate coating buffer pH 9.6. Unbound capture antibody was removed by two washes with HBSS and non-specific binding potential blocked by incubation with 200 μl per well of phosphate buffered saline, pH 7.4 (PBS containing 3% BSA).
Five days after stimulation, lymphocyte cultures were mixed to resuspend the cells and duplicate 100 μl aliquots were transferred into wells coated with the respective capture antibody specific for IFN-γ, IL-10 or TGF-β. The plates coated with capture antibodies and layered by lymphocytes were then incubated for a further 24 hours at 37° C. in a humidified atmosphere of 5% CO2 and 95% air. After this incubation the PBMC were removed by four washes with 0.2% Tween/PBS. One hundred microlitre aliquots of the appropriate biotinylated monoclonal detection antibody in 0.2% BSA/PBS were then added to the wells and incubated at room temperature for 45 minutes.
After six washes with 0.5% Tween/PBS, 100 μl of 1:100,000 ExtrAvidin-alkaline phosphatase conjugate (Sigma) was then added to each of the wells and incubated at room temperature for 30 minutes. The ExtrAvidin conjugate was removed by eight washes with 0.2% Tween/PBS, and the plates developed using 100 μl per well of p-nitrophenyl phosphate (Sigma) 1.0 mg/ml in 0.05M carbonate alkaline buffer pH9.6. The absorbance at 405 nm was then measured using a Multiscan plate reader (Labsystems Basingstoke UK).
Cytokine secretion was measured by interpolation from a standard curve generated by incubating duplicate wells with doubling dilutions of recombinant human IFN-γ or IL-10 or TGF-β (Pharmingen). The standard curves were modelled by a smoothed cubic spline function applied to the absorbance reading and the cytokine concentrations after a quasilogarithmic transformation, where: quasiloge(z)=loge[z+{square root}[z^2+1]).
Using celELISA technique, the 68 RhD peptide panel was screened for the ability to induce IL-10 and TGF-β production for PBMC from a total of 19 samples from 12 different alloimmune donors. PMBC from 10 out of the 12 RhD-alloimmunised donors could produce IL-10 to at least one of the RhD peptides on at least one occasion, with a total of 194 significant IL-10 responses to the RhD peptides between all the donors. The RhD peptides that induced significant TGF-β or IL-10 and proliferative responses from PBMC in all the samples screened are summarised in FIGS. 10 and 11.

Sequence	IL-10 production by PBMC
FSLLGLLGEIIYIVL (Residue 332-346 RhD; listed as Homo sapiens) [compound 56]	commonly induce the production of IL-10
LGLVAGLISVGGAKY (Residue 297-311 RhD; listed as Homo sapiens) [compound 49]	commonly induce the production of IL-10; also recorded: induce IL-10 production in the absence of a proliferative response or the production of IFN-γ or IL-4

Same assay, conditions: FIG. 3 and FIG. 11

Sequence	TGF-β1 production by PBMC
LGFLTSSFRRHSWSS (Residue 62-76 RhD; listed as Homo sapiens) [compound 8]	commonly induce the production of TGF-β1
WLAMVLGLVAGLISV (Residue 292-306 RhD; listed as Homo sapiens) [peptide 48]	commonly induce the production of TGF-β1; also recorded: induces TGF-β1 production in the absence of a proliferative response or the production of IFN-γ or IL-4

What follows are sequences tested on PBMC from RhD alloimmunised donors (assay: Cell proliferation assay (3H-thymidine) of PBMC from RhD alloimmunised donors stimulated with RhD peptides). Conditions: peptide 20 μg/ml, 5 days.
Assay type: cell-based, human
Method: Five complete panels of 68 15-mer peptides, with 5 or 10 amino acid overlaps, were synthesized (Multiple Peptide Service, Cambridge Research Biochemicals, Cheshire, UK and Dept. Of Biochemistry, University of Bristol, UK), corresponding to the sequences of the 30 kD Rh proteins associated with expression of the RhD or RhcE/ce/Ce/CE blood group antigens respectively (Tables 1 to 5). An additional three peptide sequences is added to the panel of RhD peptides to account for the Ile to Met substitution described earlier (numbered from 69 to 71). The amino acid sequences for each of these proteins were deduced from cDNA analyses (FIG. 1). In order to ensure purity, each panel was synthesized by fluorenylmethoxycarbonyl chemistry on resin using a base-labile linker, rather than by conventional pin technology, and randomly selected peptides were screened for purity by HPLC and amino acid analysis.
Peripheral blood mononuclear cells (PBMC) from donors or patients were separated from fresh blood samples using Ficoll-Hypaque. The donors and patients had become alloimmunised with RhD-positive blood either through pregnancy, a blood transfusion or through immunization with the relevant blood.
as §1

Sequence	proliferative T-cell response to RhD peptides
CLPLWALTLEAALIL (Residues 12-26 RhD; listed as Homo sapiens) [peptide 2]	most commonly targeted
FSLLGLLGEIIYIVL (Residue 332-346 RhD; listed as Homo sapiens) [compound 56]	most commonly targeted
HSWSSVAFNLFMLAL (Residue 72-86 RhD; listed as Homo sapiens) [compound 10]	most commonly targeted
LLTGLLLNLKIWKAP (Residue 382-396 RhD; listed as Homo sapiens) [compound 63]	most commonly targeted
SAVLAGGVAVGTSCH (Residue 272-286 RhD; listed as Homo sapiens) [peptide 46]	most commonly targeted
VTALGNLRMVISNIF (Residue 147 - 161 RhD; listed as Homo sapiens) [compound 22]	most commonly targeted

— patent publication US20050069544A1, “Pharmaceutical composition and a method of treatment” (priority 1998, published 2005)
